# In US4713457A, “Ergoline derivatives and acid addition salts thereof” (priority 1985, dated 1987):
# Structures can show the parent of a compound that is named as a salt.
# Experiments:
# [1] = test system: ddY male mice, reserpine-induced immobility; assay: Activity on reserpine-induced immobility (open-field method); type: in vivo, mouse; conditions: reserpine 2 mg/kg, total of 1-min counts at 15, 30, 45, 60 min, ***p < 0.001
# Procedure: Reserpine was administered intraperitoneally to ddY male mice (4 week old) at a dose of 2 mg/kg, and, after 18 to 20 hours, the test compound was administered intraperitoneally to the mice. Thereafter, the ambulation (the number of times of the animal crossed the demarcation line) of the mice was counted for a period of 1 minute at 15, 30, 45 and 60 minutes after the administration of the test compound, respectively, according to the open-field method. The total number of ambulation determined at 4 times in each mouse and compared with that of the control.
# [2] = test system: Rats with unilateral 6-hydroxydopamine lesion of the substantia nigra; assay: Rotational activity in rats with unilateral 6-hydroxydopamine lesion of the substantia nigra; type: in vivo, rat
# Procedure: Rats under pentobarbital sodium anesthesia (50 mg/kg, i.p.) were fixed on an apparatus for fixing brain, and 6-hydroxydopamine (8 μg/4 μl) was injected in the substantia nigra (A:3.0, L:2.6, D:7.8) according to Pellegrino & Cushman's atlas. Seven days after the injection of 6-hydroxydopamine, apomorphine was administered subcutaneously at a dose of 0.25 mg/kg, and the rats showing […] rotating movement to one side opposite to the destroyed side were selected. After 7 days, the test compound was administered intraperitoneally and, thereafter, rotating movement of the rats was observed over 1 minute at an interval of 5 minutes during a period of 60 minutes.
# [3] = J. Affect. Disord., Vol. 1, 173 (1979); cited from earlier work
# [4] = test system: Donryu male rats, indomethacin ulcer; assay: Anti-ulcer activity, indomethacin-induced ulcer; type: in vivo, rat; conditions: for Ulcer Index Inhibition / Ulcer Index: indomethacin 25 mg/kg; for Anti-ulcer activity (in words): Table 4
# Procedure: The test compound was administered orally to Donryu male rats weighing 240 to 300 g (7 rats per group) which have been fasting for 24 hours before testing, and, after 30 minutes, indomethacin was administered orally to the rats at a dose of 25 mg/kg. The rats were then maintained for 7 hours without feeding water and foods and then sacrificed. The stomach was extracted and fixed by infusing 7.5 ml of a 2% formalin solution into the stomach. The stomach was incised along the greater curvature thereof, and length (mm) of each ulcer generated in gastric glands was determined. The total length of the ulcer per rat was expressed in terms of an ulcer index.
# In this experiment, the test compound was suspended in a 0.5% aqueous gum arabic and administered at a volume of 5 ml/kg. Indomethacin (manufacturedby Sigma Co., Ltd.) was administered as a 0.5 wt% aqueous suspension in sodium carboxymethyl cellulose at a volume of 5 ml/kg. As a control, a 0.5 wt% suspension of aqueous gum arabic was orally administered at a volume of 5 ml/kg.
# [5] = test system: Rats, pylorus portion ligated (gastric secretion); assay: Gastric secretion inhibitory activity in pylorus-ligated rats; type: in vivo, rat
# Procedure: Rats weighing 200 to 250 g (8 rats per group) which have been fasting for 24 hours before testing were subjected to abdominal section under ether anesthesia, and the pylorus portion was ligated. Immediately after ligation, the test compound was administered into the duodenum as a suspension in a 5 wt% aqueous gum arabic at a volume of 2 ml/kg. The rats were sacrificed after 6 hours, and the stomach was extracted. The gastric juice was collected to determine the volume thereof, and the acidity of the gastic juice was titrated to a pH 7.0 with a 0.02N aqueous sodium hydroxide solution using a pH meter. The acid secretion amount per 6 hours (μEq/6 h) was calculated by (volume of gastric juice×acidity of gastric juice).
# [6] = test system: unanesthetized spontaneously hypertensive rats; assay: Anti-hypertensive activity, systolic blood pressure, tail cuff method; type: in vivo, rat; conditions: 10 mg/kg oral
# Procedure: (§1) The anti-hypertensive activity of the compounds was determined by the tail cuff method using unanesthetized spontaneously hypertensive rats weighing 300 to 350 g (21 to 25 week old). In this experiment, the systolic blood pressure was determined by the bloodless method using a hemodynamometer. The heart rate was determined simultaneously using a sphygmometer connected to the pulse output. After rats were placed under condition of 40° C. for 10 minutes, the blood pressure was determined by holding the rats in a holder. The test compounds were suspended in a 0.5 wt% aqueous gum arabic. Hydralazine hydrochloride used as a comparative agent was administered as an aqueous solution thereof. The volume of oral administration was 0.5 ml per 100 g of body weight.
# [7] = test system: unanesthetized spontaneously hypertensive rats; assay: Heart rate determined simultaneously with blood pressure (sphygmometer connected to the pulse output); type: in vivo, rat; conditions: for Changes in Heart Rate: 10 mg/kg oral
# Procedure: as §1
# [8] = test system: ddY male mice, KCN-induced anoxia; assay: Activity on KCN-induced anoxia in mice; type: in vivo, mouse; conditions: for Survival Time / Number of Survived Mice/Total Mice: 10 mg/kg i.p., KCN 2.5 mg/kg i.v.; for Survival Time: **p < 0.01, ***p < 0.001, survivors counted as 180 sec; for Number of Survived Mice/Total Mice: survived longer than 3 minutes
# [9] = test system: human; conditions: in human, side-effect; cited from earlier work
# [10] = 100 mg/kg into the duodenum, 6 hours
# [11] = 10 mg/kg into the duodenum, 6 hours
# [12] = 10 mg/kg into the duodenum, 6 hours, *p < 0.05
Compound,Ulcer Index Inhibition ([4]; 100 mg/kg oral) [%],"Ulcer Index ([4]; 100 mg/kg oral, **p < 0.01) [mm]",Changes in Systolic Blood Pressure ([6]; 1 hr after administration),Changes in Systolic Blood Pressure ([6]; 2 hrs after administration),Changes in Systolic Blood Pressure ([6]; 4 hrs after administration),Changes in Systolic Blood Pressure ([6]; 6 hrs after administration),Changes in Systolic Blood Pressure ([6]; 24 hrs after administration),Changes in Heart Rate ([7]; 1 hr after administration),Changes in Heart Rate ([7]; 2 hrs after administration),Changes in Heart Rate ([7]; 4 hrs after administration),Changes in Heart Rate ([7]; 6 hrs after administration),Changes in Heart Rate ([7]; 24 hrs after administration),also measured
"CN1CCc2cccc3c2[C@H]1Cc1ccc(O)c(O)c1-3 [Apomorphine Hydrochloride, reference compound]",,,,,,,,,,,,,"Ambulation ([1]; 3 mg/kg i.p., n = 10): 71.0 ± 7.0; Number of Rotating Movement over 60 min. ([2]; 0.5 mg/kg i.p.): 147"
CC(C)C[C@H]1C(=O)N2CCC[C@H]2[C@]2(O)O[C@](NC(=O)[C@@H]3C=C4c5cccc6[nH]c(Br)c(c56)C[C@H]4N(C)C3)(C(C)C)C(=O)N12 [Bromocriptine Methanesulfonate],,,,,,,,,,,,,"Ambulation ([1]; 10 mg/kg i.p., n = 6): 36.7 ± 12.3; Anti-depressive activity (known) [3]: has been known to have an anti-depressive activity"
"NC[C@H]1CC[C@H](C(=O)Oc2ccc(CCC(=O)O)cc2)CC1 [Cetraxate, p-hydroxyhydrocinnamic acid trans-(4-aminomethyl)cyclohexane carboxylate]",14.9,52.1 ± 8.7,,,,,,,,,,,Anti-ulcer activity (in words) [4]: did not show any significant anti-ulcer activity
"CN=C(NC#N)NCCSCc1nc[nH]c1C [Cimetidine, 1-cyano-2-methyl-3-[2-[[(5-methylimidazole-4-yl)methyl]thio]ethyl]guanidine, reference compound]",53.7,28.3 ± 8.4,,,,,,,,,,,"Volume of Acid Secreted ([5]; 100 mg/kg into the duodenum): 142.5 ± 60.5 μEq/6 h; Volume of Acid Secreted, Inhibition [5, 10]: 66.2%; Volume of Gastric Juice, Inhibition [5, 10]: 60.2%"
"CN1C[C@H](CN2CCOC2=O)C[C@@H]2c3cccc4[nH]cc(c34)C[C@H]21 [Example 2, 3-(6-Methylergolin-8β-ylmethyl)oxazolidin-2-one]",,,-64 Δ mmHg,-36 Δ mmHg,-37 Δ mmHg,-52 Δ mmHg,-11 Δ mmHg,-39 Δ/min.,-74 Δ/min.,-58 Δ/min.,-56 Δ/min.,-23 Δ/min.,"Volume of Acid Secreted, Inhibition [5, 11]: 70.8%; Volume of Gastric Juice, Inhibition [5, 11]: 63.3%; Total Acidity [5, 12]: 61.4 ± 7.5 mEq/liter; Ulcer Index Inhibition ([4]; 10 mg/kg oral): 92.7%; Ulcer Index ([4]; 10 mg/kg oral, ***p < 0.001): 4.4 ± 2.3 mm; Survival Time [8]: 144.4 ± 17.6 s; Number of Survived Mice/Total Mice [8]: 5/8; Brain protection activity (in words) ([8]; Table 5): exhibited the activity higher that that of dihydroergotoxine methanesulfonate"
"CN1CC(=O)N(C[C@@H]2C[C@@H]3c4cccc5[nH]cc(c45)C[C@H]3N(C)C2)C1=O [Example 3, 1-Methyl-3-(6-methylergolin-8β-ylmethyl)imidazolidin-2,4-dione]",,,-57 Δ mmHg,-66 Δ mmHg,-31 Δ mmHg,-27 Δ mmHg,-4 Δ mmHg,26 Δ/min.,1 Δ/min.,2 Δ/min.,-4 Δ/min.,1 Δ/min.,"Volume of Acid Secreted, Inhibition [5, 11]: 52.9%; Volume of Gastric Juice, Inhibition [5, 11]: 48.4%; Total Acidity [5, 12]: 70.0 ± 5.3 mEq/liter; pH of gastric juice [5, 12]: 2.07 ± 0.22; Acid output per 6 h ([5]; 10 mg/kg into the duodenum, *p < 0.05): 198.7 ± 34.3 μEq/6 h; Survival Time [8]: 101.6 ± 17.8 s; Number of Survived Mice/Total Mice [8]: 2/8"
"CN1C[C@H](Cn2cncn2)C[C@@H]2c3cccc4[nH]cc(c34)C[C@H]21 [Example 6, 1-(6-Methylergolin-8β-ylmethyl)-1,2,4-triazole]",,,-64 Δ mmHg,-67 Δ mmHg,-62 Δ mmHg,-65 Δ mmHg,-14 Δ mmHg,-8 Δ/min.,-30 Δ/min.,-33 Δ/min.,-21 Δ/min.,-10 Δ/min.,"Ambulation ([1]; 10 mg/kg i.p., n = 6): 198.8 ± 32.2; Duration of increase in spontaneous movement and sniffing ([2]; 10 mg/kg i.p.): more than 5 hours; Number of Rotating Movement over 60 min. ([2]; 10 mg/kg i.p.): 0; Spontaneous movement and sniffing ([2]; 10 mg/kg i.p.): Increase in spontaneous movement and sniffing occurred markedly"
"NNc1nncc2ccccc12 [Hydralazine Hydrochloride, reference compound]",,,-47 Δ mmHg,-52 Δ mmHg,-67 Δ mmHg,-41 Δ mmHg,-22 Δ mmHg,65 Δ/min.,66 Δ/min.,75 Δ/min.,64 Δ/min.,44 Δ/min.,Heart rate effect (in words) ([7]; Table 2): a marked increase in heart rate; Tachycardia [9]: exhibited tachycardia in human as one of side-effects
CC(C)=CCOc1ccc(/C=C/C(=O)c2ccc(OCC=C(C)C)cc2OCC(=O)O)cc1 [Sofalcone],3.4,59.2 ± 10.5,,,,,,,,,,,Anti-ulcer activity (in words) [4]: did not show any significant anti-ulcer activity
